The text below walks through data of PubChem BioAssay AID330 (DTP/NCI, 2004).

Values joined by “and” are separate entries in the source; they are usually repeats but may differ in a detail not shown here. Identical values can stand only once. Toxic doses and inconclusive results are not listed.

This assay deals with P388 leukemia ip, CD2F1 mice, survival T/C. In words: NCI In Vivo Anticancer Drug Screen. Data for tumor model P388 Leukemia (intraperitoneal) in CD2F1 (CDF1) mice. As to conditions: endpoint: median survival time, higher = longer survival. The method in brief:
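Mice carrying the transplanted tumor received test compound or vehicle. Survival was recorded in each group, and the value is the treated-group measurement divided by that of the vehicle-treated control group.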

Where [1] appears, read: dose: 50.0 mg/kg/injection, schedule: Q01DX009 (ip), vehicle: Klucel (hydroxypropylcellulose) (HPC).
Where [2] appears, read: dose: 100.0 mg/kg/injection, schedule: Q01DX009 (ip), vehicle: Klucel (hydroxypropylcellulose) (HPC).
Setting [3] is: dose: 200.0 mg/kg/injection, schedule: Q01DX009 (ip), vehicle: Klucel (hydroxypropylcellulose) (HPC).
The mark [4] stands for this setting: dose: 25.0 mg/kg/injection, schedule: Q01DX009 (ip), vehicle: water.
The mark [5] stands for this setting: dose: 50.0 mg/kg/injection, schedule: Q01DX009 (ip), vehicle: water.
[6] abbreviates: dose: 50.0 mg/kg/injection, schedule: Q01DX009 (ip), vehicle: saline.
Setting [7] is: dose: 100.0 mg/kg/injection, schedule: Q01DX009 (ip), vehicle: saline.
[8] abbreviates: dose: 12.5 mg/kg/injection, schedule: Q01DX009 (ip), vehicle: saline with Tween-80.
[9] abbreviates: dose: 25.0 mg/kg/injection, schedule: Q01DX009 (ip), vehicle: saline with Tween-80.
Setting [10] is: dose: 50.0 mg/kg/injection, schedule: Q01DX009 (ip), vehicle: saline with Tween-80.
Setting [11] is: dose: 50.0 mg/kg/injection, schedule: Q01DX005 (ip), vehicle: saline.
[12] abbreviates: dose: 100.0 mg/kg/injection, schedule: Q01DX005 (ip), vehicle: saline.

On to `O=C(O)c1cc(-c2c(Cl)cccc2Cl)nc2cc3ccccc3cc12`, for which the T/C is, setting by setting: under setting [1], 111 % of control; under setting [2], 106 % of control; under setting [3], 106 % of control.
On to `CC(C)N(C(C)C)C(C(=O)OCC(O)C(O)C(O)C(O)C(=O)O)N(C(C)C)C(C)C` (centres undefined), for which the T/C is 113 % of control under setting [1], 97 % of control under setting [2] and 111 % of control under setting [3].
Consider `O=NNc1ccc2cccnc2n1`, for which the T/C (dose: 3.12 mg/kg/injection, schedule: Q01DX009 (ip), vehicle: water) was 99 % of control and 115 % of control; the T/C (dose: 6.25 mg/kg/injection, schedule: Q01DX009 (ip), vehicle: water) is 116 % of control and 123 % of control; the T/C under setting [4] is 150 % of control; the T/C under setting [5] is 187 % of control and 206 % of control.
Consider `CN1CCC/C1=C1/C(=O)Nc2ccc(Cl)cc21`, for which the T/C (dose: 50.0 mg/kg/injection, schedule: Q01DX005 (ip), vehicle: Klucel (hydroxypropylcellulose) (HPC)) was 108 % of control; the T/C (dose: 100.0 mg/kg/injection, schedule: Q01DX005 (ip), vehicle: Klucel (hydroxypropylcellulose) (HPC)) was 107 % of control; the T/C (dose: 200.0 mg/kg/injection, schedule: Q01DX005 (ip), vehicle: Klucel (hydroxypropylcellulose) (HPC)) was 102 % of control.
Turning to `CC(=O)NC1=CC(=O)c2[nH]c(=O)[nH]c(=O)c2C1=O`, the T/C is, setting by setting: (dose: 3.0 mg/kg/injection, schedule: Q01DX005 (ip), vehicle: other) 99 % of control; (dose: 6.0 mg/kg/injection, schedule: Q01DX005 (ip), vehicle: other) 98 % of control; (dose: 12.0 mg/kg/injection, schedule: Q01DX005 (ip), vehicle: other) 100 % of control.
Consider `CN=C(N)N/N=C/c1c2ccccc2c(Cl)c2ccccc12`, for which, under “dose: 25.0 mg/kg/injection, schedule: Q04DX002 (ip), vehicle: saline with Tween-80”, the T/C was 114 % of control.
Regarding `NCc1cc(=O)[nH]o1`, the T/C runs as follows: under setting [6], 89 % of control; under setting [7], 92 % of control.
With `CCSC1(SCC)C(=O)OC2=C(CCCCC2)C1N(C)c1ccccc1` (centres undefined), the T/C was 93 % of control under setting [8], 99 % of control under setting [9] and 99 % of control under setting [10].
As for `CCCNC(=O)OCC1=C(COC(=O)NCCC)C2OC1C(C(=O)OC)=C2C(=O)OC`, the T/C (dose: 12.5 mg/kg/injection, schedule: Q01DX009 (ip), vehicle: distilled water + Tween-80) is 89 % of control; the T/C (dose: 25.0 mg/kg/injection, schedule: Q01DX009 (ip), vehicle: distilled water + Tween-80) is 93 % of control; the T/C (dose: 50.0 mg/kg/injection, schedule: Q01DX009 (ip), vehicle: distilled water + Tween-80) is 86 % of control.
With `C/C=C(\C)C(=O)OC1C2C(C)=CC(=O)C(O)C2(C)C2C3(O)OCC24C1OC(=O)C(OC(C)=O)C4C(C)C3O` (centres undefined), the T/C reads like this: (dose: 2.5 mg/kg/injection, schedule: Q01DX009 (ip), vehicle: saline) 155 % of control; (dose: 5.0 mg/kg/injection, schedule: Q01DX009 (ip), vehicle: saline) 163 % of control.
For `COc1nc(NC2OC(CO)C(O)C(O)C2O)c(C=O)c(=O)n1C` (centres undefined), the T/C is, setting by setting: (dose: 60.0 mg/kg/injection, schedule: Q01DX005 (ip), vehicle: saline) 93 % of control; (dose: 120.0 mg/kg/injection, schedule: Q01DX005 (ip), vehicle: saline) 100 % of control; (dose: 240.0 mg/kg/injection, schedule: Q01DX005 (ip), vehicle: saline) 99 % of control.
With `CCN(CC)CCOCC1CC2C(C=C1C)C2(C)C` (centres undefined), the T/C runs as follows: under setting [11], 107 % of control; under setting [12], 98 % of control.
For the compound `CCCCc1n(O)c(-c2ccccc2)c(C)[n+]1[O-]`, the T/C under setting [8] was 100 % of control; the T/C under setting [9] was 92 % of control; the T/C under setting [10] is 88 % of control and 91 % of control.
On to `O=S(O)O`, for which the T/C is 108 % of control under setting [11]; 101 % of control under setting [12]; 109 % of control (dose: 200.0 mg/kg/injection, schedule: Q01DX005 (ip), vehicle: saline); 116 % of control (dose: 400.0 mg/kg/injection, schedule: Q01DX005 (ip), vehicle: saline).
In the case of `COc1c2c(nc3ccccc13)-c1cc3c(c(=O)n1C2)COC(=O)C3(O)CC(=O)N1CCOCC1` (centres undefined), the T/C is 150 % of control (dose: 12.5 mg/kg/injection, schedule: Q01DX009 (ip), vehicle: saline); 160 % of control under setting [6]; 161 % of control under setting [7]; 169 % of control (dose: 100.0 mg/kg/injection, schedule: Q01DX009 (ip), vehicle: suspension in saline); 104 % of control (dose: 200.0 mg/kg/injection, schedule: Q01DX009 (ip), vehicle: suspension in saline).
Consider `C=C1CC[N+]2(CCCC)CCCC12` (centres undefined), for which the T/C was 104 % of control (dose: 7.5 mg/kg/injection, schedule: Q01DX005 (ip), vehicle: saline); 98 % of control (dose: 15.0 mg/kg/injection, schedule: Q01DX005 (ip), vehicle: saline); 100 % of control (dose: 30.0 mg/kg/injection, schedule: Q01DX005 (ip), vehicle: saline).
For the compound `N#CC(C#N)=C1Cc2ccccc2C1`, the T/C is, setting by setting: (dose: 25.0 mg/kg/injection, schedule: Q01DX001 (ip), vehicle: saline with Tween-80) 109 % of control; (dose: 50.0 mg/kg/injection, schedule: Q01DX001 (ip), vehicle: saline with Tween-80) 100 % of control.
Regarding `CCCOCn1cc(F)c(=O)n(COCCC)c1=O`, the T/C by setting is: (dose: 5.62 mg/kg/injection, schedule: Q04DX002 (ip), vehicle: water) 95 % of control; (dose: 11.25 mg/kg/injection, schedule: Q04DX002 (ip), vehicle: water) 93 % of control; (dose: 22.5 mg/kg/injection, schedule: Q04DX002 (ip), vehicle: water) 92 % of control; (dose: 45.0 mg/kg/injection, schedule: Q04DX002 (ip), vehicle: water) 92 % of control; (dose: 90.0 mg/kg/injection, schedule: Q04DX002 (ip), vehicle: water) 91 % of control; (dose: 180.0 mg/kg/injection, schedule: Q04DX002 (ip), vehicle: water) 95 % of control.
As for `CCOC(=O)Nc1cc(Cl)c2[nH]c(=O)[nH]c2n1`, the T/C is 103 % of control (dose: 12.5 mg/kg/injection, schedule: Q01DX009 (ip), vehicle: other); 106 % of control (dose: 25.0 mg/kg/injection, schedule: Q01DX009 (ip), vehicle: other); 100 % of control (dose: 50.0 mg/kg/injection, schedule: Q01DX009 (ip), vehicle: other); 104 % of control (dose: 100.0 mg/kg/injection, schedule: Q01DX009 (ip), vehicle: other); 100 % of control (dose: 200.0 mg/kg/injection, schedule: Q01DX009 (ip), vehicle: other).
Take `O=S1(=O)C[CH-]C1.[C-]#[O+].[C-]#[O+].[C-]#[O+].[W].[c-]1[c-][c-][cH-][c-]1`: the T/C is, setting by setting: (dose: 0.78 mg/kg/injection, schedule: Q01DX009 (ip), vehicle: saline with Tween-80) 98 % of control; (dose: 1.56 mg/kg/injection, schedule: Q01DX009 (ip), vehicle: saline with Tween-80) 93 % of control; (dose: 3.13 mg/kg/injection, schedule: Q01DX009 (ip), vehicle: saline with Tween-80) 94 % of control; (dose: 6.25 mg/kg/injection, schedule: Q01DX009 (ip), vehicle: saline with Tween-80) 93 % of control.
As to `N#CC(C#N)=Cc1ccc(N2CCOCC2)cc1`, the T/C runs as follows: under setting [6], 90 % of control; under setting [7], 97 % of control; (dose: 200.0 mg/kg/injection, schedule: Q01DX009 (ip), vehicle: saline) 90 % of control.
Turning to `O=C(O)C(CBr)CBr`, the T/C is, setting by setting: under setting [4], 107 % of control; under setting [5], 106 % of control; (dose: 100.0 mg/kg/injection, schedule: Q01DX009 (ip), vehicle: water) 100 % of control.
As to `COC1C(C)OC(O[C@@H]2C[C@@](C)(O)Cc3cc4c(c(O)c32)C(=O)c2c(O)cc3c(c2C4=O)O[C@@H]2O[C@@]3(C)[C@@H](O)[C@H](N(C)C)[C@H]2O)C(OC)C1(C)OC` (some centres undefined), under “dose: 3.12 mg/kg/injection, schedule: Q01DX009 (ip), vehicle: other”, the T/C is 119 % of control.
Regarding `COc1ccc2c(c1)c(-c1cc3ccccc3oc1=O)cn2C(=O)c1ccc(Cl)cc1`, the T/C (dose: 60.0 mg/kg/injection, schedule: Q01DX005 (ip), vehicle: saline with Tween-80) was 105 % of control; the T/C (dose: 120.0 mg/kg/injection, schedule: Q01DX005 (ip), vehicle: saline with Tween-80) was 102 % of control; the T/C (dose: 240.0 mg/kg/injection, schedule: Q01DX005 (ip), vehicle: saline with Tween-80) is 106 % of control.
